This experiment deals with APJ receptor (Homo sapiens (Human), UniProt P35414). Description: [35S]GTPγS binding assay on membranes from CHO cells stably expressing human APJ receptor. Type of experiment: biochemical. As to conditions: membranes of CHO cells stably expressing human APJ receptor, means of several independent experiments, read-out: Activity hAPJ SPA EC50 IP. A digest of the protocol:
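Membranes from CHO cells stably expressing human APJ were incubated with 0.2 nM [35S]GTPγS and ligands for 90 min at RT in 20 mM HEPES pH 7.5, 5 mM MgCl2, 200 mM NaCl, 3 μM GDP, 0.1% BSA with WGA PS beads. Nonspecific binding was set with 100 μM GTPγS. EC50 came from non-linear regression.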
On the technique in general: GTPγS is a poorly hydrolysed GTP analogue; its binding reports G protein activation.

Chain of APJ receptor (P35414 whole entry): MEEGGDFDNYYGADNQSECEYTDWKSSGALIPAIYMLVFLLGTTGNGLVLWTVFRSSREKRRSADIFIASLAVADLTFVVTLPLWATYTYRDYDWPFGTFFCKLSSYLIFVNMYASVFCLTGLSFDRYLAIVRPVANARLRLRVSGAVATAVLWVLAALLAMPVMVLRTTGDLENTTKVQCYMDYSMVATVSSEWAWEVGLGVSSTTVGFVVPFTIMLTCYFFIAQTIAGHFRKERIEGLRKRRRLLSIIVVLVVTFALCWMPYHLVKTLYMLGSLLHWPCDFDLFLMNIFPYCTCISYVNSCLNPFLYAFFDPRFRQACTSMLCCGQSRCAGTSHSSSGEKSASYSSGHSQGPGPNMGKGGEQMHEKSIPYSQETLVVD

For orientation: EC50 means the concentration that produces a half-maximal response. On to `COc1cccc(OC)c1-n1c(NS(=O)(=O)[C@@H](C)[C@H](O)c2cc3n(n2)CCCO3)nnc1-c1ccc(C)o1` (single isomer, unassigned) [Example 292.0, (1R,2S)-1-(6,7-Dihydro-5H-pyrazolo[5,1-b][1,3]oxazin-2-yl)-N-(4-(2,6-dimethoxyphenyl)-5-(5-methyl-2-furanyl)-4H-1,2,4-triazol-3-yl)-1-hydroxy-2-propanesulfonamide or (1S,2R)-1-(6,7-dihydro-5H-pyrazolo[5,1-b][1,3]oxazin-2-yl)-N-(4-(2,6-dimethoxyphenyl)-5-(5-methyl-2-furanyl)-4H-1,2,4-triazol-3-yl)-1-hydroxy-2-propanesulfonamide], for which the EC50 was determined as 5.1 nM.

On to `COc1cccc(OC)c1-n1c(NS(=O)(=O)[C@H](C)[C@@H](O)c2cscn2)nnc1-c1ccc(C)o1` (single isomer, unassigned) [Example 307.0, (1S,2R)—N-(4-(2,6-Dimethoxyphenyl)-5-(5-methyl-2-furanyl)-4H-1,2,4-triazol-3-yl)-1-hydroxy-1-(1,3-thiazol-4-yl)-2-propanesulfonamide or (1R,2S)—N-(4-(2,6-dimethoxyphenyl)-5-(5-methyl-2-furanyl)-4H-1,2,4-triazol-3-yl)-1-hydroxy-1-(1,3-thiazol-4-yl)-2-propanesulfonamide], for which the EC50 worked out at 28 nM.

For `COc1cccc(OC)c1-n1c(NS(=O)(=O)[C@@H]2C[C@H](C#N)CN(c3ncc(F)cn3)C2)nnc1-c1ccc(C)o1` (single isomer, unassigned) [Example 174.0, (3R,5S)-5-Cyano-N-(4-(2,6-dimethoxyphenyl)-5-(5-methyl-2-furanyl)-4H-1,2,4-triazol-3-yl)-1-(5-fluoro-2-pyrimidinyl)-3-piperidinesulfonamide or (3S,5R)-5-cyano-N-(4-(2,6-dimethoxyphenyl)-5-(5-methyl-2-furanyl)-4H-1,2,4-triazol-3-yl)-1-(5-fluoro-2-pyrimidinyl)-3-piperidinesulfonamide], the EC50 was determined as 1.9 nM.

As for `COc1cccc(OC)c1-n1c(NS(=O)(=O)CCc2ncc(F)cn2)nnc1-c1ccc(C)o1` [Example 125.0, N-(4-(2,6-Dimethoxyphenyl)-5-(5-methylfuran-2-yl)-4H-1,2,4-triazol-3-yl)-2-(5-fluoropyrimidin-2-yl)ethanesulfonamide], the EC50 is 0.34 nM.

In the case of `COc1cnc([C@@H](O)[C@H](C)S(=O)(=O)Nc2nnc(-c3ccc(C)o3)n2-c2c(OC)cccc2OC)cn1` (single isomer, unassigned) [Example 146.0, (1R, 2S)—N-(4-(2,6-Dimethoxyphenyl)-5-(5-methyl-2-furanyl)-4H-1,2,4-triazol-3-yl)-1-hydroxy-1-(5-methoxy-2-pyrazinyl)-2-propanesulfonamide or (1S, 2R)—N-(4-(2,6-dimethoxyphenyl)-5-(5-methyl-2-furanyl)-4H-1,2,4-triazol-3-yl)-1-hydroxy-1-(5-methoxy-2-pyrazinyl)-2-propanesulfonamide], the EC50 amounted to 0.13 nM.

`COc1cccc(OC)c1-n1c(NS(=O)(=O)[C@@H](C)[C@](C)(N)c2ncc(F)cn2)nnc1-c1ccc(C)o1` (single isomer, unassigned) [Example 246.0]: the EC50 was 1.4 nM.

Consider `COc1cccc(OC)c1-n1c(NS(=O)(=O)[C@H](C)Cc2ncc(F)cn2)nnc1-c1cc(C)c(C)o1` (single isomer, unassigned) [Example 91.0, (R)—N-(4-(2,6-Dimethoxyphenyl)-5-(4,5-dimethylfuran-2-yl)-4H-1,2,4-triazol-3-yl)-1-(5-fluoropyrimidin-2-yl)propane-2-sulfonamide or (S)—N-(4-(2,6-dimethoxyphenyl)-5-(4,5-dimethylfuran-2-yl)-4H-1,2,4-triazol-3-yl)-1-(5-fluoropyrimidin-2-yl)propane-2-sulfonamide], for which the EC50 is 4.2 nM.

For the molecule `COc1cccc(OC)c1-n1c(NS(=O)(=O)[C@@H](CCO)[C@H](C)c2ncc(C)cn2)nnc1-c1ccc(C)o1` (single isomer, unassigned) [Example 62.0], the EC50 worked out at 0.22 nM.

Turning to `COc1cccc(OC)c1-n1c(NS(=O)(=O)[C@H](C)[C@@H](O)c2cc3n(n2)CCCO3)nnc1-c1ccc(C)o1` (racemic) [Example 290.0], the EC50 is 5 nM.

As for `COc1cccc(OC)c1-n1c(NS(=O)(=O)C2C[C@@H]2c2ccc(Cl)cc2)nnc1-c1ccco1` (single isomer, unassigned) [Example 191.0, (1R,2S)-2-(4-Chlorophenyl)-N-(4-(2,6-dimethoxyphenyl)-5-(2-furanyl)-4H-1,2,4-triazol-3-yl)cyclopropanesulfonamide or (1S,2R)-2-(4-chlorophenyl)-N-(4-(2,6-dimethoxyphenyl)-5-(2-furanyl)-4H-1,2,4-triazol-3-yl)cyclopropanesulfonamide], the EC50 was 15 nM.

As for `Cc1ccc(-c2nnc(NS(=O)(=O)[C@@H](C)[C@H](C)c3ncc(F)cn3)n2C2CCOCC2)o1` [Example 182.0, (2S,3R)-3-(5-Fluoro-2-pyrimidinyl)-N-(5-(5-methyl-2-furanyl)-4-(tetrahydro-2H-pyran-4-yl)-4H-1,2,4-triazol-3-yl)-2-butanesulfonamide], the EC50 came to 26 nM.

Turning to `COc1cccc(OC)c1-n1c(NS(=O)(=O)[C@@H](C)Cc2ncc(F)c3[nH]cnc23)nnc1-c1ccco1` (single isomer, unassigned) [Example 5.0, (2S)—N-(4-(2,6-dimethoxyphenyl)-5-(2-furanyl)-4H-1,2,4-triazol-3-yl)-1-(7-fluoro-1H-imidazo[4,5-c]pyridin-4-yl)-2-propanesulfonamide or (2R)—N-(4-(2,6-dimethoxyphenyl)-5-(2-furanyl)-4H-1,2,4-triazol-3-yl)-1-(7-fluoro-1H-imidazo[4,5-c]pyridin-4-yl)-2-propanesulfonamide], the EC50 was determined as 0.95 nM.

Consider `COc1cccc(OC)c1-n1c(NS(=O)(=O)[C@H]2C[C@@H](O)CN(c3ncc(F)cc3C#N)C2)nnc1-c1ccc(C)o1` (mixture of isomers) [Example 330.0, (3S,5R)-1-(3-Cyano-5-fluoro-2-pyridinyl)-N-(4-(2,6-dimethoxyphenyl)-5-(5-methyl-2-furanyl)-4H-1,2,4-triazol-3-yl)-5-hydroxy-3-piperidinesulfonamide and (3R,5S)-1-(3-cyano-5-fluoro-2-pyridinyl)-N-(4-(2,6-dimethoxyphenyl)-5-(5-methyl-2-furanyl)-4H-1,2,4-triazol-3-yl)-5-hydroxy-3-piperidinesulfonamide], for which the EC50 was determined as 0.43 nM.

In the case of `COC[C@H]1CCCC(=O)N1C[C@@H](C)S(=O)(=O)Nc1nnc(-c2ccc(C)o2)n1-c1c(OC)cccc1OC` (single isomer, unassigned) [Example 185.0], the EC50 worked out at 33 nM.

Take `COc1cccc(OC)c1-n1c(NS(=O)(=O)[C@H]2C[C@@H](O)CN(c3nc(C)cc(C)n3)C2)nnc1-c1ccc(C)o1` (single isomer, unassigned) [Example 336.0, (3S,5R)—N-(4-(2,6-Dimethoxyphenyl)-5-(5-methylfuran-2-yl)-4H-1,2,4-triazol-3-yl)-1-(4,6-dimethylpyrimidin-2-yl)-5-hydroxypiperidine-3-sulfonamide or (3R,5S)—N-(4-(2,6-dimethoxyphenyl)-5-(5-methylfuran-2-yl)-4H-1,2,4-triazol-3-yl)-1-(4,6-dimethylpyrimidin-2-yl)-5-hydroxypiperidine-3-sulfonamide]: the EC50 amounted to 0.55 nM.

Take `COc1cccc(OC)c1-n1c(NS(=O)(=O)[C@H]2C[C@@H](O)CN(c3cc(C#N)ccn3)C2)nnc1-c1ccc(C)o1` (racemic) [Example 333.0, (3S,5R)-1-(4-Cyanopyridin-2-yl)-N-(4-(2,6-dimethoxyphenyl)-5-(5-methylfuran-2-yl)-4H-1,2,4-triazol-3-yl)-5-hydroxypiperidine-3-sulfonamide and (3R,5S)-1-(4-cyanopyridin-2-yl)-N-(4-(2,6-dimethoxyphenyl)-5-(5-methylfuran-2-yl)-4H-1,2,4-triazol-3-yl)-5-hydroxypiperidine-3-sulfonamide]: the EC50 worked out at 0.45 nM.

Regarding `COc1cccc(OC)c1-n1c(NS(=O)(=O)[C@H](C)[C@@H](O)c2coc(C)n2)nnc1-c1ccc(C)o1` (single isomer, unassigned) [Example 303.0, (1R,2S)—N-(4-(2,6-Dimethoxyphenyl)-5-(5-methyl-2-furanyl)-4H-1,2,4-triazol-3-yl)-1-hydroxy-1-(2-methyl-1,3-oxazol-4-yl)-2-propanesulfonamide or (1S,2R)—N-(4-(2,6-dimethoxyphenyl)-5-(5-methyl-2-furanyl)-4H-1,2,4-triazol-3-yl)-1-hydroxy-1-(2-methyl-1,3-oxazol-4-yl)-2-propanesulfonamide], the EC50 came out at 13 nM.

Consider `COc1cccc(OC)c1-n1c(NS(=O)(=O)C[C@](C)(F)c2ncc(C#N)cn2)nnc1-c1ccc(C)o1` (single isomer, unassigned) [Example 245.0, (2R)-2-(5-Cyano-2-pyrimidinyl)-N-(4-(2,6-dimethoxyphenyl)-5-(5-methyl-2-furanyl)-4H-1,2,4-triazol-3-yl)-2-fluoro-1-propanesulfonamide or (2S)-2-(5-cyano-2-pyrimidinyl)-N-(4-(2,6-dimethoxyphenyl)-5-(5-methyl-2-furanyl)-4H-1,2,4-triazol-3-yl)-2-fluoro-1-propanesulfonamide], for which the EC50 is 0.95 nM.

As for `COc1cccc(OC)c1-n1c(NS(=O)(=O)[C@@H](C)[C@H](O)c2ccc(C#N)cc2F)nnc1-c1ccc(C)o1` [Example 75.0], the EC50 worked out at 0.55 nM.

As for `COc1cccc(OC)c1-n1c(NS(=O)(=O)[C@H](C)Cc2ccc(C#N)cn2)nnc1-c1ccc(C)o1` (single isomer, unassigned) [Example 12.0, (2R)-1-(5-cyano-2-pyridinyl)-N-(4-(2,6-dimethoxyphenyl)-5-(5-methyl-2-furanyl)-4H-1,2,4-triazol-3-yl)-2-propanesulfonamide or (2S)-1-(5-cyano-2-pyridinyl)-N-(4-(2,6-dimethoxyphenyl)-5-(5-methyl-2-furanyl)-4H-1,2,4-triazol-3-yl)-2-propanesulfonamide], the EC50 was found to be 0.15 nM.

(Values after patent US10736883B2, “Triazole furan compounds as agonists of the APJ receptor” (AMGEN INC., priority 2016, dated 2020).)
